Values of other authors in patent US10201585B2, “Methods for treatment of atherosclerosis” (Stealth Peptides International, Inc., priority 2012, dated 2019).

Columns and labels:
hepatitis C virus (HCV) = conditions: alone and with interferon; cited from earlier work
[1] = tested on: spinal cord injury in rodents; conditions: administered both pre- and post-injury; cited from earlier work

For `O=C(O)C[C@H](O)C[C@H](O)/C=C/c1c(C2CC2)nc2ccccc2c1-c1ccc(F)cc1` [pitavastatin], the “Effect on HCV in an in vitro model of HCV infection” value (“Effect on HCV in an in vitro model” for short) (hepatitis C virus (HCV)) is listed as “anti-HCV effect”.
In the case of `CC[C@H](C)C(=O)O[C@H]1C[C@@H](C)C=C2C=C[C@H](C)[C@H](CC[C@@H]3C[C@@H](O)CC(=O)O3)[C@H]21` [lovastatin], the “Effect on HCV in an in vitro model” value (hepatitis C virus (HCV)) is given as “anti-HCV effect”.
In the case of `CC(C)c1c(C(=O)Nc2ccccc2)c(-c2ccccc2)c(-c2ccc(F)cc2)n1CC[C@@H](O)C[C@@H](O)CC(=O)O` [atorvastatin], the “Effect in spinal cord injury” value [1] is given as “promoting locomotion and tissue sparing, as well as reducing inflammation” and the “Effect on HCV in an in vitro model” value (hepatitis C virus (HCV)) is given as “anti-HCV effect”.
